# Results: article PMC9098912, “Molecular basis for inhibiting human glucose transporters by exofacial inhibitors” (Nature Communications, 2022)
# “Also recorded” adds a separate entry of the source.
# How the values were obtained:
# [1] = test system: GLUT1; parameters: method as in Siebeneicher et al., 2016; conditions: SAR of Bayer compounds; ref Siebeneicher et al., 2016; cited from earlier work
# [2] = target: T1, WT GLUT3 (Homo sapiens, UniProt P11169, N43T); assay: Microscale thermophoresis (MST) binding assay; parameters: Figure 1e middle: MST binding curve, Mean / Figure 1e right: MST binding curve, Mean / Figure 2c: MST binding curve, Mean: unit not given here; conditions: for Figure 1e right: MST binding curve, Mean: GLUT3, log [phloretin]
# T1 construct: His10 (N); made in house; host or cells: Sf9 insect cells (baculovirus)
# T1 sequence (P11169 1-496 N43T): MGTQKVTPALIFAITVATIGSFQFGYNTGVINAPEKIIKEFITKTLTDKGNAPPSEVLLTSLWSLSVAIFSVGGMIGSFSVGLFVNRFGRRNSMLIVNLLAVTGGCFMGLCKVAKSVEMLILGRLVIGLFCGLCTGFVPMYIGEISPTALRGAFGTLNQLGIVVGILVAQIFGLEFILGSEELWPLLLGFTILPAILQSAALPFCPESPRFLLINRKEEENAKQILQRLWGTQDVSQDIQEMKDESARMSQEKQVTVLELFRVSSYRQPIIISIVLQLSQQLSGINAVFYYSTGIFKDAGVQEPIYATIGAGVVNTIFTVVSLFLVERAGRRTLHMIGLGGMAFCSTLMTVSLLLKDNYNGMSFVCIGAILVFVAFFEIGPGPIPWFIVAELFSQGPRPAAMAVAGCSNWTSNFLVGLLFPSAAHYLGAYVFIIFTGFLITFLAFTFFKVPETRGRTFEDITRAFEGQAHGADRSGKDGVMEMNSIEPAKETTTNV
# Protocol: (§1) All mutants were generated by standard PCR-based strategy.
# (§2) Inhibitors with serial dilutions were mixed with indicated protein. […] MST analyses were conducted on a Monolith NT. […] The MST data was analyzed by Monolith NT.115.
# [3] = target: T2, GLUT3exo (GLUT3 S64W and I305W) (Homo sapiens, UniProt P11169, I305W/N43T/S64W); assay: biochemical; type: binding; conditions: for Figure 1e right: MST binding curve, Mean: GLUT3 dTrp mutant, log [phloretin]
# T2 construct: His10 (N); made in house; host or cells: Sf9 insect cells (baculovirus)
# Protocol: Following the same principle for the engineering of XylE-WW, we introduced two Trp substitutions, S64W and I305W, on the extracellular segments of TM2 and TM8 of GLUT3, respectively. This variant will be referred to as GLUT3exo hereafter (Fig. 1a). The two bulky substituents were expected to trap GLUT3 in an outward-facing conformation.
# as §1, §2
# T2 sequence (P11169 whole entry N43T/S64W/I305W): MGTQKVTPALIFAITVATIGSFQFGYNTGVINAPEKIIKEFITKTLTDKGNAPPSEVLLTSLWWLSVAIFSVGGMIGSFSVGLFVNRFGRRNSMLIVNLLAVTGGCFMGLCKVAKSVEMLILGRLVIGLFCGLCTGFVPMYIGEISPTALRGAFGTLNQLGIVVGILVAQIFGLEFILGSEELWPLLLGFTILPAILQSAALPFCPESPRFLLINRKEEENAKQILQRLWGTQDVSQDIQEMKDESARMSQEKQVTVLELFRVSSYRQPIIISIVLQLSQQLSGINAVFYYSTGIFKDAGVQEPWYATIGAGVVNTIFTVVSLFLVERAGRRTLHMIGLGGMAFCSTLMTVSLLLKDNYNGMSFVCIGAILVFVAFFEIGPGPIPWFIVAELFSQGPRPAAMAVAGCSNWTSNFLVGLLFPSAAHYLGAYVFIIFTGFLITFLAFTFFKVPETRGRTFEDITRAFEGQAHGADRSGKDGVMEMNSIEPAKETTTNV
structure (smiles),measurement,setting,value
COc1ccccc1N1CCN(c2ncnc3c2cnn3-c2ccccc2)CC1 [cmpd 3],GLUT1 potency,[1],increased the potency
FC(F)(F)Oc1ccccc1N1CCN(c2ncnc3c2cnn3-c2ccccc2)CC1 [cmpd 4],GLUT1 potency,[1],completely inactive
FC(F)(F)c1ccccc1N1CCN(c2ncnc3c2cnn3-c2ccccc2)CC1 [cmpd 6],GLUT1 potency,[1],completely inactive
COc1cccc(N2CCN(c3ncnc4c3cnn4-c3ccccc3)CC2)c1 [cmpd 8],GLUT1 potency,[1],decreased the GLUT1 potency
COc1ccc(N2CCN(c3ncnc4c3cnn4-c3ccccc3)CC2)cc1 [cmpd 10],GLUT1 potency,[1],decreased the GLUT1 potency
COc1ccccc1N1CCN(c2ncnc3c2cnn3-c2ccccc2)CC1C (stereo not shown) [cmpd 37],GLUT1 potency,[1],tolerated
COc1ccccc1N1CC2(C1)CN(c1ncnc3c1cnn3-c1ccccc1)C2 [cmpd 41],GLUT1 potency,[1],less potent
COc1ccccc1N1CCCN(c2ncnc3c2cnn3-c2ccccc2)CC1 [cmpd 42],GLUT1 potency,[1],increased the potency
COc1ccccc1N1CCN(c2ncnc3c2cnn3-c2ccccc2F)CC1 [cmpd 49],GLUT1 potency,[1],without significant loss of GLUT1 inhibition activity; also recorded: increased the potency
COc1ccccc1N1CCN(c2ncnc3c2cnn3-c2ccccn2)CC1 [cmpd 63],GLUT1 potency,[1],significantly reduced the potency
COc1ccccc1N1CCN(c2ncnc3c2cnn3-c2ncccc2F)CC1 [cmpd 66],GLUT1 potency,[1],significantly reduced the potency
COc1ccccc1N1CCN(c2ncnc3c2cnn3-c2ccccc2OC)CC1 [compound 50],GLUT1 potency,[1],without significant loss of GLUT1 inhibition activity
COc1ccccc1N1CCN(c2ncnc3c2cnn3-c2ccccc2C)CC1 [compound 51],GLUT1 potency,[1],without significant loss of GLUT1 inhibition activity
COc1ccccc1N1CCN(c2ncnc3c2cnn3-c2cccnc2)CC1 [compound 64],GLUT1 potency,[1],significantly reduced the potency
COc1ccccc1N1CCN(c2ncnc3c2cnn3-c2ccncc2)CC1 [compound 65],GLUT1 potency,[1],significantly reduced the potency
O=C(CCc1ccc(O)cc1)c1c(O)cc(O)cc1O [phloretin],"Figure 1e right: MST binding curve, Mean",[2]; M -3.30103,99.1935
same,"Figure 1e right: MST binding curve, Mean",[2]; M -3.60206,89.7967
same,"Figure 1e right: MST binding curve, Mean",[2]; M -3.90309,81.0827
same,"Figure 1e right: MST binding curve, Mean",[2]; M -4.20412,66.445
same,"Figure 1e right: MST binding curve, Mean",[2]; M -4.50515,50.3655
same,"Figure 1e right: MST binding curve, Mean",[2]; M -4.80618,41.2635
same,"Figure 1e right: MST binding curve, Mean",[2]; M -5.10721,25.71
same,"Figure 1e right: MST binding curve, Mean",[2]; M -5.40824,15.7731
same,"Figure 1e right: MST binding curve, Mean",[2]; M -5.70927,5.8894
same,"Figure 1e right: MST binding curve, Mean",[2]; M -6.0103,4.0557
same,"Figure 1e right: MST binding curve, Mean",[2]; M -6.31133,2.0286
same,"Figure 1e right: MST binding curve, Mean",[2]; M -6.61236,4.4085
same,"Figure 1e right: MST binding curve, Mean",[2]; M -6.91339,1.9121
same,"Figure 1e right: MST binding curve, Mean",[2]; M -7.21442,-7.4814
same,"Figure 1e right: MST binding curve, Mean",[2]; M -7.51545,-2.4182
same,"Figure 1e right: MST binding curve, Mean",[2]; M -7.81648,0.9156
same,Kd,[2]; WT GLUT3,26.3 ± 3.2 µM
same,Kd,[3],15.5 ± 1.5 µM
same,"Figure 1e right: MST binding curve, Mean",[3]; M -3.30103,98.0572
same,"Figure 1e right: MST binding curve, Mean",[3]; M -3.60206,93.8274
same,"Figure 1e right: MST binding curve, Mean",[3]; M -3.90309,89.3364
same,"Figure 1e right: MST binding curve, Mean",[3]; M -4.20412,79.2593
same,"Figure 1e right: MST binding curve, Mean",[3]; M -4.50515,66.4804
same,"Figure 1e right: MST binding curve, Mean",[3]; M -4.80618,46.5416
same,"Figure 1e right: MST binding curve, Mean",[3]; M -5.10721,34.4965
same,"Figure 1e right: MST binding curve, Mean",[3]; M -5.40824,22.7361
same,"Figure 1e right: MST binding curve, Mean",[3]; M -5.70927,13.3872
same,"Figure 1e right: MST binding curve, Mean",[3]; M -6.0103,7.2146
same,"Figure 1e right: MST binding curve, Mean",[3]; M -6.31133,0.8877
same,"Figure 1e right: MST binding curve, Mean",[3]; M -6.61236,6.4707
same,"Figure 1e right: MST binding curve, Mean",[3]; M -6.91339,2.3532
same,"Figure 1e right: MST binding curve, Mean",[3]; M -7.21442,1.6413
same,"Figure 1e right: MST binding curve, Mean",[3]; M -7.51545,0.1149
same,"Figure 1e right: MST binding curve, Mean",[3]; M -7.81648,2.456
